Measured values published in patent publication US20080255192A1, “Methods and Compositions for Selectin Inhibition” (Wyeth, priority 2007, published 2008).

Target: T1, P-selectin/PSGL-1 interaction (Homo sapiens, UniProt P16109)
T1 construct: comprised of the lectin and epidermal growth factor-like (EGF) domains expressed in CHO cells; made in house; host or cells: CHO cells (P-LE)
T1 sequence (P16109 42-198): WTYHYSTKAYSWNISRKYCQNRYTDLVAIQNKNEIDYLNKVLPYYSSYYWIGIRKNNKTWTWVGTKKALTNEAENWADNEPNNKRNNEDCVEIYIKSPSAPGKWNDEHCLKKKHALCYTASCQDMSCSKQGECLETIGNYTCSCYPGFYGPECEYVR
Assay: Biacore P-Selectin/PSGL-1 Inhibition Assay (surface plasmon resonance)
Format: binding
Conditions: 250 uM test compound, 500 nM P.LE, immobilized PSGL-1 19ek, 10% DMSO, pH 7.4
Outline: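 Biotinylated monomeric human PSGL-1 "19ek" on streptavidin chip (600–700 RU); compounds preincubated 1 h, then mixed with 500 nM P-LE (lectin-EGF, CHO-expressed) at 250 or 500 μM compound, 10% DMSO, HEPES buffer with 1 mM CaCl2/MgCl2, pH 7.4. SPR at 25 °C; percent binding inhibition from double-referenced signals.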

Row | Structure (SMILES) | inhibition at 250 µM
1 | COc1ccc(C2(c3nc4c(C(F)(F)F)cccc4c(C(=O)O)c3O)CC2)cc1 [Compound 50, 3-hydroxy-2-(1-(4-methoxyphenyl)cyclopropyl)-8-(trifluoromethyl)quinoline-4-carboxylic acid] | 36%
2 | O=C(O)c1c(O)c(C2(c3ccsc3)CC2)nc2c(C(F)(F)F)cccc12 [Compound 59, 3-hydroxy-2-(1-(thiophen-3-yl)cyclopropyl)-8-(trifluoromethyl)quinoline-4-carboxylic acid] | ≤ 10%
3 | Cc1ccc2c(C(=O)O)c(O)c(C(C)Cc3ccccc3)nc2c1C (centres unmarked) [Compound 134, 3-Hydroxy-7,8-dimethyl-2-(1-phenylpropan-2-yl)quinoline-4-carboxylic acid] | 49%
4 | O=C(O)c1c(O)c(C2(c3ccc(F)cc3)CC2)nc2ccc(Br)cc12 [Compound 72, 6-bromo-2-(1-(4-fluorophenyl)cyclopropyl)-3-hydroxyquinoline-4-carboxylic acid] | 12%
5 | CC(C)c1cccc2c(C(=O)O)c(O)c(CC(C)c3ccccc3)nc12 (centres unmarked) [Compound 136, 3-Hydroxy-8-isopropyl-2-(2-phenylpropyl)quinoline-4-carboxylic acid] | 64%
6 | O=C(O)c1c(O)c(C2(c3cccc(C(F)(F)F)c3)CC2)nc2c(C(F)(F)F)cccc12 [Compound 57, 3-hydroxy-8-(trifluoromethyl)-2-(1-(3-(trifluoromethyl)phenyl)cyclopropyl)quinoline-4-carboxylic acid] | 42%
7 | O=C(O)c1c(O)c(C2(c3ccc(Cl)cc3)CC2)nc2ccc(O)cc12 [Compound 23, 2-(1-(4-chlorophenyl)cyclopropyl)-3,6-dihydroxyquinoline-4-carboxylic acid] | ≤ 10%
8 | Cc1cccc2c(C(=O)O)c(O)c(C3(c4ccc(F)cc4)CC3)nc12 [Compound 78, 2-(1-(4-fluorophenyl)cyclopropyl)-3-hydroxy-8-methylquinoline-4-carboxylic acid] | 10%
9 | O=C(O)c1c(O)c(C2(c3ccc(Cl)cc3)CC2)nc2ccc(F)cc12 [Compound 17, 2-(1-(4-chlorophenyl)cyclopropyl)-6-fluoro-3-hydroxyquinoline-4-carboxylic acid] | ≤ 10%
10 | CCc1cc(C(F)(F)F)cc2c(C(=O)O)c(O)c(C3(c4ccc(Cl)cc4)CC3)nc12 [Compound 99, 2-(1-(4-chlorophenyl)cyclopropyl)-8-ethyl-3-hydroxy-6-(trifluoromethyl)quinoline-4-carboxylic acid] | ≤ 10%
11 | O=C(O)c1c(OC(=O)N2CCOCC2)c(Cc2ccc(Cl)cc2)nc2c3c(ccc12)CCCC3 [Compound 138, 2-(4-Chlorobenzyl)-3-[(morpholin-4-ylcarbonyl)oxy]-7,8,9,10-tetrahydrobenzo[h]quinoline-4-carboxylic acid] | 16%
12 | O=C(O)c1c(O)c(C2(c3ccc(Cl)cc3)CC2)nc2c(-c3ccccc3)cccc12 [Compound 6, 2-(1-(4-chlorophenyl)cyclopropyl)-3-hydroxy-8-phenylquinoline-4-carboxylic acid] | 98%
13 | Cc1cccc2c(C(=O)O)c(O)c(C3(c4ccccc4)CC3)nc12 [Compound 31, 3-hydroxy-8-methyl-2-(1-phenylcyclopropyl)quinoline-4-carboxylic acid] | ≤ 10%
14 | CC(Cc1ccccc1)c1nc2c(C(F)(F)F)cccc2c(C(=O)O)c1O (centres unmarked) [Compound 132, 3-Hydroxy-2-(1-Phenylpropan-2-yl)-8-(trifluoromethyl)quinoline-4-carboxylic acid] | 49%
15 | O=C(O)c1c(O)c(C2(c3ccccc3)CC2)nc2c(C(F)(F)F)cc(-c3ccccc3)cc12 [Compound 102, 3-hydroxy-6-phenyl-2-(1-Phenylcyclopropyl)-8-(trifluoromethyl)quinoline-4-carboxylic acid] | ≤ 10%
16 | O=C(O)c1c(O)c(CC2(c3ccccc3)CC2)nc2c(C(F)(F)F)cccc12 [Compound 111, 3-hydroxy-2-(1-phenyl-cyclopropylmethyl)-8-trifluoromethyl-quinoline-4-carboxylic acid] | 46%
17 | O=C(O)c1c(O)c(C2(c3ccc(F)cc3)CC2)nc2c(Cl)cccc12 [Compound 73, 8-chloro-2-(1-(4-fluorophenyl)cyclopropyl)-3-hydroxyquinoline-4-carboxylic acid] | ≤ 10%
18 | O=C(O)c1c(O)c(C2(c3ccc(Cl)cc3)CC2)nc2c(C(F)(F)F)cc(C(F)(F)F)cc12 [Compound 105, 3-hydroxy-2-(1-(4-chlorophenyl)cyclopropyl)-6,8-bis(trifluoromethyl)quinoline-4-carboxylic acid] | ≤ 10%
19 | CC(C)(c1ccccc1)c1nc2c(C(F)(F)F)cccc2c(C(=O)O)c1O [Compound 117, 3-hydroxy-2-(2-phenylpropan-2-yl)-8-(trifluoromethyl)quinoline-4-carboxylic acid] | 55%

Row | Structure (SMILES) | inhibition at 250 µM
20 | O=C(O)c1c(O)c(C2(c3ccc(F)cc3)CC2)nc2c(-c3ccccc3)cccc12 [Compound 77] | 37%
21 | CCc1cccc2c(C(=O)O)c(O)c(C3(c4ccc(C(F)(F)F)cc4)CC3)nc12 [Compound 87, 8-ethyl-3-hydroxy-2-(1-(4-(trifluoromethyl)phenyl)cyclopropyl)quinoline-4-carboxylic acid] | 61%
22 | O=C(O)c1c(O)c(C2(c3ccc(Cl)cc3)CC2)nc2c(Cl)cccc12 [Compound 5, 8-chloro-2-(1-(4-chlorophenyl)cyclopropyl)-3-hydroxyquinoline-4-carboxylic acid] | 93%
23 | O=C(O)c1c(O)c(C2(c3ccccc3C(F)(F)F)CC2)nc2c(C(F)(F)F)cccc12 [Compound 63, 3-hydroxy-8-(trifluoromethyl)-2-(1-(2-(trifluoromethyl)phenyl)cyclopropyl)quinoline-4-carboxylic acid] | 17%
24 | CCC(c1ccccc1)c1nc2c(C(F)(F)F)cccc2c(C(=O)O)c1O (centres unmarked) [Compound 126, 3-Hydroxy-2-(1-phenylpropyl)-8-(trifluoromethyl)quinoline-4-carboxylic acid] | 61%
25 | CCc1cccc2c(C(=O)O)c(O)c(C3(c4ccc(C)cc4)CC3)nc12 [Compound 82, 8-ethyl-2-(1-p-tolylcyclopropyl)-3-hydroxyquinoline-4-carboxylic acid] | 38%
26 | O=C(O)c1c(O)c(C2(c3ccc(F)cc3)CC2)nc2c3c(ccc12)CCCC3 [Compound 80, 2-(1-(4-fluorophenyl)cyclopropyl)-3-hydroxy-7,8,9,10-tetrahydrobenzo[h]quinoline-4-carboxylic acid] | 59%
27 | CC(C)(c1ccc(Cl)cc1)c1nc2c(C(F)(F)F)cccc2c(C(=O)O)c1O [Compound 119, 2-(2-(4-Chlorophenyl)propan-2-yl)-3-hydroxy-8-(trifluoromethyl)quinoline-4-carboxylic acid] | ≤ 10%
28 | Cc1ccc2nc(C3(c4ccccc4)CC3)c(O)c(C(=O)O)c2c1 [Compound 33, 3-hydroxy-6-methyl-2-(1-phenylcyclopropyl)quinoline-4-carboxylic acid] | ≤ 10%
29 | CCc1ccc2c(C(=O)O)c(O)c(C3(c4ccccc4)CC3)nc2c1 [Compound 28, 7-ethyl-3-hydroxy-2-(1-phenylcyclopropyl)quinoline-4-carboxylic acid] | ≤ 10%
30 | O=C(O)c1c(O)c(C2(c3ccccc3)CC2)nc2c(Cl)cccc12 [Compound 47, 8-chloro-3-hydroxy-2-(1-phenylcyclopropyl)quinoline-4-carboxylic acid] | ≤ 10%
31 | O=C(O)c1c(O)c(C2(Cc3ccccc3)CC2)nc2c(C(F)(F)F)cccc12 [Compound 112, 2-(1-benzyl-cyclopropyl)-3-hydroxy-8-trifluoromethyl-quinoline-4-carboxylic acid] | 43%
32 | O=C(O)c1c(O)c(C2(c3ccc(F)cc3)CC2)nc2c(-c3ccsc3)cccc12 [Compound 71, 2-(1-(4-fluorophenyl)cyclopropyl)-3-hydroxy-8-(thiophen-3-yl)quinoline-4-carboxylic acid] | 64%
33 | O=C(O)c1c(O)c(C2(c3ccc(F)cc3)CC2)nc2c(Br)cccc12 [Compound 75, 8-bromo-2-(1-(4-fluorophenyl)cyclopropyl)-3-hydroxyquinoline-4-carboxylic acid] | ≤ 10%
34 | O=C(O)c1c(O)c(C2(c3ccccc3)CC2)nc2ccc(OC(F)(F)F)cc12 [Compound 29, 3-hydroxy-2-(1-phenylcyclopropyl)-6-(trifluoromethoxy)quinoline-4-carboxylic acid] | 10%
35 | O=C(O)c1c(O)c(C2(c3ccc(Cl)cc3)CC2)nc2c(C(F)(F)F)cccc12 [Compound 38, 2-(1-(4-chlorophenyl)cyclopropyl)-3-hydroxy-8-(trifluoromethyl)quinoline-4-carboxylic acid] | 52%
36 | CC(C)c1cccc2c(C(=O)O)c(O)c(C(C)Cc3ccccc3)nc12 (centres unmarked) [Compound 133, 3-Hydroxy-8-isopropyl-2-(1-phenylpropan-2-yl)quinoline-4-carboxylic acid] | 64%
37 | Cc1ccc2c(C(=O)O)c(O)c(C3(c4ccc(Cl)cc4)CC3)nc2c1 [Compound 13, 2-(1-(4-chlorophenyl)cyclopropyl)-3-hydroxy-7-methylquinoline-4-carboxylic acid] | ≤ 10%
38 | O=C(O)c1c(O)c(C2(c3ccc(Cl)cc3)CC2)nc2ccc(OC(F)(F)F)cc12 [Compound 21, 2-(1-(4-chlorophenyl)cyclopropyl)-3-hydroxy-6-(trifluoromethoxy)quinoline-4-carboxylic acid] | 28%
